In this experiment the test system is rgVN04 H5N1 virus. Also on record: species or system mice. The settings on record: mouse, in vivo.

As to cholera toxin [CT], the “early protection by VN04 H5N1 vaccine combined with adjuvant” value is on record as “did not provide any early protection”.
